13 molecules from PubChem BioAssay (NCI) can be followed below.

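Each compound was tested at five concentrations against cells in 96-well plates for 48 hours. TGI: concentration producing complete growth inhibition.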

Some test systems named below: HL-60(TB) leukemia; SF-539 CNS; HCT-15 colon; EKVX NSCLC; IGROV1 ovarian; 786-0 renal; K-562 leukemia; TK-10 renal; HOP-62 NSCLC; ACHN renal; SF-268 CNS; NCI/ADR-RES ovarian.
Holding throughout (assay): NCI anticancer screen, dose series, 48 h

`COc1cc2c(cc1O)[C@H](C)C(c1ccc(Cl)cc1)O2` (some centres not stated): the TGI in the assay on HL-60(TB) leukemia was 35.6 µM; in the assay with SF-539 CNS, greater than 100 µM; in the assay with HCT-15 colon it was 27.7 µM; in the assay on EKVX NSCLC, 92.3 µM; in the assay on IGROV1 ovarian, greater than 100 µM; with 786-0 renal it was 32 µM. Besides, the TGI in the assay with K-562 leukemia was found to be 51.7 µM; in the assay with TK-10 renal, 78.8 µM; in the assay with HOP-62 NSCLC, 68.2 µM; in the assay with ACHN renal, 27.8 µM; with SF-268 CNS, 72.6 µM.

Turning to `Cc1ncc([N+](=O)[O-])n1CCN(C)CCCCn1ccnc1[N+](=O)[O-]`, the TGI in the assay on HL-60(TB) leukemia, in the assay on SF-539 CNS, in the assay with HCT-15 colon, with EKVX NSCLC, in the assay with 786-0 renal and with K-562 leukemia was greater than 100 µM throughout. Further, the TGI in the assay with TK-10 renal, in the assay with HOP-62 NSCLC, with ACHN renal and with SF-268 CNS was greater than 100 µM each time.

Turning to `CSc1nc2c(c(N(C)C)n1)C=Nn1c(nc3ccccc31)S2`, the TGI with NCI/ADR-RES ovarian, with HCT-15 colon, with IGROV1 ovarian, in the assay with 786-0 renal, in the assay with K-562 leukemia and in the assay with TK-10 renal was greater than 100 µM each time. Also, the TGI in the assay with HOP-62 NSCLC, with ACHN renal and with SF-268 CNS was greater than 100 µM each time.

As to `COC(=O)/C(=C/c1ccc(OC)cc1)C(C(=O)O)=C(C)C`, the TGI in the assay on HL-60(TB) leukemia, with SF-539 CNS, with HCT-15 colon, in the assay with EKVX NSCLC, with IGROV1 ovarian and with 786-0 renal was greater than 100 µM in each case. Besides, the TGI with K-562 leukemia, with TK-10 renal, with HOP-62 NSCLC and in the assay with SF-268 CNS was greater than 100 µM each time.

For `O=C(CCN1CCCCC1CCO)Nc1ccc2c(c1)C(=O)c1ccc(NC(=O)CCN3CCCCC3CCO)cc1C2=O` (configuration not stated), the TGI came out at 19 µM with HL-60(TB) leukemia; 7.89 µM in the assay with SF-539 CNS; 24.6 µM in the assay on HCT-15 colon; 27 µM in the assay on EKVX NSCLC; 18.9 µM with IGROV1 ovarian; 5.54 µM in the assay with 786-0 renal. The TGI in the assay with K-562 leukemia is greater than 100 µM; in the assay on TK-10 renal, 14.6 µM; with HOP-62 NSCLC it was 21.4 µM; in the assay on ACHN renal, 24.9 µM; with SF-268 CNS, 25.4 µM.

`CCOC(=O)C1NCCc2c1[nH]c1ccccc21` (configuration not stated): the TGI in the assay on HL-60(TB) leukemia, in the assay on HCT-15 colon, in the assay on EKVX NSCLC, in the assay on IGROV1 ovarian, with 786-0 renal and in the assay with K-562 leukemia was greater than 10 µM each time. The TGI in the assay on TK-10 renal, in the assay on HOP-62 NSCLC and with SF-268 CNS was greater than 10 µM throughout.

As to `CCCCOC1CC2(c3ccc(OC)cc3)C(=O)c3ccccc3N2O1` (configuration not stated), the TGI was greater than 100 µM with SF-539 CNS; greater than 10 µM in the assay with HCT-15 colon; greater than 100 µM in the assay with EKVX NSCLC; greater than 10 µM with IGROV1 ovarian; greater than 100 µM in the assay on 786-0 renal; greater than 100 µM in the assay on K-562 leukemia. Also, the TGI in the assay with TK-10 renal was greater than 100 µM; in the assay on ACHN renal it was greater than 10 µM; with SF-268 CNS it was greater than 100 µM.

For the molecule `CC1=C/C(=C(\c2ccc(N(C)C)cc2)c2ccc([N+](C)(C)C)cc2)C=CC1=[N+](C)C`, the TGI was 5.93 µM in the assay with HL-60(TB) leukemia; 34.6 µM in the assay with SF-539 CNS; greater than 100 µM in the assay with HCT-15 colon; 15.8 µM in the assay with EKVX NSCLC; 26.6 µM in the assay with IGROV1 ovarian; 58.2 µM in the assay on 786-0 renal. Further, the TGI with K-562 leukemia is greater than 100 µM; in the assay on TK-10 renal, 14.9 µM; in the assay with HOP-62 NSCLC, 71.5 µM; in the assay with ACHN renal it was 43.8 µM; with SF-268 CNS, 26.3 µM.

Regarding `Cc1c(C)c(C)c(-n2c(=O)n(C)c(=O)n2C(C)(C)C)c(C)c1C`, the TGI with HL-60(TB) leukemia, with SF-539 CNS, in the assay on HCT-15 colon, in the assay with 786-0 renal, in the assay on K-562 leukemia and in the assay on TK-10 renal was greater than 100 µM each time. In addition, the TGI in the assay on ACHN renal and with SF-268 CNS was greater than 100 µM each time.

For `CC(C)(C)C1CC[C@H]2c3c([nH]c4ccc(Br)cc34)[C@H]3C(=O)N(c4ccccc4)C(=O)[C@H]3[C@H]2C1` (some centres not stated), the TGI with HL-60(TB) leukemia is 35.1 µM; in the assay on EKVX NSCLC, greater than 100 µM; with IGROV1 ovarian, greater than 100 µM; with 786-0 renal, 23.6 µM; in the assay on K-562 leukemia, greater than 100 µM; with TK-10 renal, greater than 100 µM. Besides, the TGI was greater than 100 µM in the assay with HOP-62 NSCLC, greater than 100 µM with ACHN renal and 95.1 µM in the assay on SF-268 CNS.

Regarding `CCCCCCC1CCC2CCCC(C)N12` (configuration not stated), the TGI in the assay on HL-60(TB) leukemia was 38.2 µM; in the assay with SF-539 CNS, greater than 100 µM; with HCT-15 colon, 89.6 µM; in the assay with EKVX NSCLC it was greater than 100 µM; in the assay with 786-0 renal, greater than 100 µM; in the assay with K-562 leukemia, 35.3 µM. Also, the TGI in the assay on TK-10 renal, in the assay with HOP-62 NSCLC, in the assay on ACHN renal and in the assay with SF-268 CNS was greater than 100 µM throughout.

On to `c1cnc2c(c1)-n1cccc1C1(CCOCC1)NN2`, for which the TGI in the assay with HL-60(TB) leukemia, in the assay with SF-539 CNS, with HCT-15 colon, with EKVX NSCLC, in the assay with IGROV1 ovarian and in the assay on 786-0 renal was greater than 100 µM throughout. Moreover, the TGI in the assay with K-562 leukemia, in the assay with TK-10 renal, with ACHN renal and in the assay with SF-268 CNS was greater than 100 µM each time.

Take `C1=C2SSC3=CC=C(SSc4ccc(s4)SSC4=CC=C(SSC(=C1)S2)S4)S3`: the TGI in the assay with NCI/ADR-RES ovarian, in the assay with HCT-15 colon, in the assay with EKVX NSCLC, in the assay on IGROV1 ovarian, in the assay on 786-0 renal and in the assay with K-562 leukemia was greater than 100 µM in each case. Besides, the TGI with TK-10 renal, with HOP-62 NSCLC, in the assay on ACHN renal and in the assay with SF-268 CNS was greater than 100 µM each time.
